In one test the target is bacterioferritin (Bftn). As to conditions: buffer not given in main text.
For the next test, the target named is AcFtnHCH (Anopheles culicifacies, UniProt A0A182M0V3). Description: biochemical.

Broadly, the Kd is the concentration at which binding is half-saturated. A high value points to weaker binding.

Sequence of AcFtnHCH (A0A182M0V3 21-216): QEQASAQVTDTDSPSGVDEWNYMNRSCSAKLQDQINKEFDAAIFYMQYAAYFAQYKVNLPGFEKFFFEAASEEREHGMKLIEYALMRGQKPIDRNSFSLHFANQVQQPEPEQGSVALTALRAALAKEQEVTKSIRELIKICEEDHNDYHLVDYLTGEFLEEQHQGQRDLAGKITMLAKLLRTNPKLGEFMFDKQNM

Take `C=CC1=C(C)C2=Cc3c(C=C)c(C)c4[n]3[Fe]([Cl])[n]3c(c(C)c(CCC(=O)O)c3=CC3=NC(=C4)C(C)=C3CCC(=O)O)=CC1=N2` [hemin]: the dissociation constant Kd on bacterioferritin (Bftn) came out at 136 ± 21.9 nM; at AcFtnHCH, 67.8 ± 6.5 nM.
